System: Influenza virus A/AA/6/60
Format: cell-based

Which “inhibition of the infectivity of virus” value does the source give for “t-octylphenoxypolyethoxyethanol [TRITON X-100]” here?
The value was “only partially inhibited”.

What about the “reduction of influenza A infection of MDCK cells” value (30 min) of the same substance?
The value was “completely ineffective”.

From patent US7655252B2 (priority 1999, dated 2010)
